Assay results: the NIST ThermoML archive (doi:10.1021/acs.jced.8b00578)
Numbers after ± are expanded uncertainties.

Columns and labels:
[1] = Molar enthalpy of transition or fusion; details: Crystal; DSC
[2] = Crystal; DSC

Molar enthalpy of transition or fusion [1]: 6.62 ± 0.311 kcal/mol
Triple point temperature [2]: 494.4 ± 0.81 K
SMILES: O=C(O)c1cc2ccccc2cc1O [3-hydroxy-2-naphthoic acid]
